The nature of data set [1]: BA test (oral absorbability). Format: in vivo. The settings on record: rat, plasma; Rats, Oral administration 1 mg/kg. The procedure: An experimental material and a method for examining oral absorbability • (1) Animals used: rats or mice were used. • (2) Breeding condition: chow and sterilized tap water were allowed to be taken in freely. • (3) Setting of a dosage and grouping: a predetermined dosage was administered orally or intravenously. Groups were formed as shown below. (A dosage varied depending on each compound) Oral administration 1-30 mg/kg (n=2 to 3) Intravenous administration 0.5-10 mg/kg (n=2 to 3) • (4) Preparation of administered liquid: In oral administration, a solution or suspension was administered. […] In intravenous administration, administration from the caudal vein was conducted using a syringe with an injection needle. • (6) Evaluation item: Blood was chronologically collected, and then the concentration of a compound of the present invention blood plasma was measured using a LC/MS/MS. • (7) Statistical analysis: With regard to a shift in plasma concentration, the plasma concentration-time area under the curve (AUC) was calculated using a nonlinear least-squares program WinNonlin®. Bioavailability (BA) was calculated from the AUCs of the oral administration group and the intravenous administration group, respectively. […]

Data set [2] deals with human ether-a-go-go related gene (hERG) channel (Homo sapiens (Human), UniProt Q12809). The data set is described as follows: hERG test (IKr, whole cell patch clamp in HEK293 cells). Format: cell-based. As to conditions: 1 μmol/L of the compound, HEK293 cells expressing hERG. From the text:
For the purpose of assessing risk of an electrocardiogram QT interval prolongation, effects on delayed rectifier K+ current (IKr), which plays an important role in the ventricular repolarization process of the compound of the present invention, was studied using HEK293 cells expressing human ether-a-go-go related gene (hERG) channel.
After a cell was retained at a membrane potential of −80 mV by whole cell patch clamp method using an automated patch clamp system (PatchXpress 7000A, Axon Instruments Inc.) and given leakage potential at −50 mV, IKr induced by depolarization pulse stimulation at +40 mV for 2 seconds and, further, repolarization pulse stimulation at −50 mV for 2 seconds was recorded. After the generated current was stabilized, extracellular solution (NaCl: 135 mmol/L, KCl: 5.4 mmol/L, […]: 0.3 mmol/L, CaCl2.2H2O: 1.8 mmol/L, MgCl2.6H2O: 1 mmol/L, glucose: 10 mmol/L, HEPES (4-(2-hydroxyethyl)-1-piperazineethanesulfonic acid): 10 mmol/L, pH=7.4) in which a compound of the present invention had been dissolved at an objective concentration was applied to the cell under the room temperature condition for 10 minutes. From the recording IKr, an absolute value of the tail peak current was measured based on the current value at the resting membrane potential using an analysis software (DataXpress ver. 2, Molecular Devices Corporation).
In general terms: Block of hERG is tested as a sign of cardiac risk.

human ether-a-go-go related gene (hERG) channel, sequence (Q12809 whole entry): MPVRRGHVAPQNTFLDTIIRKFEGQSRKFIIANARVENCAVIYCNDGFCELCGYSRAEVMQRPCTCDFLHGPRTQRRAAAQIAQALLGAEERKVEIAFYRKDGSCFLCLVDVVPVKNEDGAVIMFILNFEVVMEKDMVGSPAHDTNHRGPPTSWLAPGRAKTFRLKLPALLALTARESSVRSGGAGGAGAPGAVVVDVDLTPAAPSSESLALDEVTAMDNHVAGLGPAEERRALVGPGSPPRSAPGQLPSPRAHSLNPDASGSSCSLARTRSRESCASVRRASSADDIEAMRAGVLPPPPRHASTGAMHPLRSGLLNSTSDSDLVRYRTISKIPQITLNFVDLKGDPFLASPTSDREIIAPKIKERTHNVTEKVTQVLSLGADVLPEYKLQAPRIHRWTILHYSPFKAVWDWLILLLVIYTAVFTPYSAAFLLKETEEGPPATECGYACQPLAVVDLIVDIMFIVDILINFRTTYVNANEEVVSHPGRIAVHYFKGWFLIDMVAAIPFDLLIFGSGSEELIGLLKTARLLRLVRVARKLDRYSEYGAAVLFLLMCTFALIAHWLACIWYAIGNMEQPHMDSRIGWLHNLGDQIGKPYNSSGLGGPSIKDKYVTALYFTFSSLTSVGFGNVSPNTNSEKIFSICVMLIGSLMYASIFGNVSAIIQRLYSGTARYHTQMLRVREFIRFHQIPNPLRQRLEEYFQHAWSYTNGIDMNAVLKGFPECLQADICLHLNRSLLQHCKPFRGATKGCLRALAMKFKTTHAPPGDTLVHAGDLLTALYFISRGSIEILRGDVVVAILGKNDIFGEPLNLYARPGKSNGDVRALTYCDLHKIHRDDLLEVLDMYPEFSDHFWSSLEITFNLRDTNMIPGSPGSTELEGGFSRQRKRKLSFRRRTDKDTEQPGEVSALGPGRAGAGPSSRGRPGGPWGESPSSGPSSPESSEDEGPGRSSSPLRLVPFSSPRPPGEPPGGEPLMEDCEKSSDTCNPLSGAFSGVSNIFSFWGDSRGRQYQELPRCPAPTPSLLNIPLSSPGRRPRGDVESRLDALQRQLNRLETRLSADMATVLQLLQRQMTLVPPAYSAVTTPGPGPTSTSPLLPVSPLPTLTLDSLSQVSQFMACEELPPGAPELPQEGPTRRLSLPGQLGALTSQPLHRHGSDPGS

What is called bioavailability is dose-corrected exposure relative to a reference, in per cent. A low value points to poor availability. In data set [1], `CC(C)Oc1ccc(S(=O)(=O)N2C[C@@H](C)[C@@H](n3nc(CC(=O)O)c4ccc(F)cc43)C2)cc1` [Compound I-37] showed a bioavailability of 71%. Besides, the “% inhibition of IKr tail peak current” value in data set [2] turned out to be 7.1%.

On to `CCOc1ccc(S(=O)(=O)N2C[C@@H](C)[C@@H](n3nc(CC(=O)O)c4ccccc43)C2)cn1` [Compound I-96], for which the bioavailability in data set [1] is 82%.
